22 compounds from patent US20090270350A1, “Pyridinone Pyrazole Urea and Pyrimidinone Pyrazole Urea Derivatives” (PFIZER INC., priority 2006, published 2009) can be followed below.

Sequence of p38α (Q16539 whole entry): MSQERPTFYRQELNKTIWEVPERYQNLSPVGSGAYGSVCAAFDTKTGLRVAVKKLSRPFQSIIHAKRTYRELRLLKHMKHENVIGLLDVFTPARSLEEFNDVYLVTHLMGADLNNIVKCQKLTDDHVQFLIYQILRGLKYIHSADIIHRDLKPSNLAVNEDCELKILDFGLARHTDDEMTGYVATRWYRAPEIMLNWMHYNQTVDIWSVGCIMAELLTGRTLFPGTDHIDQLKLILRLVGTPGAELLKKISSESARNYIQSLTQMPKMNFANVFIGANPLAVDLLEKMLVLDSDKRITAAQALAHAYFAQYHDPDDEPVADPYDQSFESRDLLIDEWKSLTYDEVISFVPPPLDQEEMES

For one series, the target named is p38α (Homo sapiens, UniProt Q16539). The experiment in a line: p38α/MK2 cascade assay. Format: biochemical. Conditions: Table 2; same p38α/MK2 cascade assay; 40 minutes preincubation; read-out: p38a/MK2 Cascade 40 min Pre-Incuabtion (% Inhibition): IC50. In short, it runs like this:
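In a cascade format, p38α was preincubated 40 min with inhibitor (1000–0.05 nM) before adding 1 nM nonactive MK2 (54-400), 5 μM MgATP and 0.5 μM FITC-Hsp27 peptide. Reaction ran 60 min in HEPES pH 7.5 with MgCl2, DTT, 2% DMSO, then EDTA-quenched. Peptide phosphorylation was measured by Caliper mobility shift to give IC50.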
For `COc1ccc(Cn2c(C)cc(OCc3ccccc3CNC(=O)Nc3cc(C(C)(C)C)nn3-c3cccc(OCCO)c3)c(Cl)c2=O)cc1Cl` [Example 265, 1-{3-tert-butyl-1-[3-(2-hydroxyethoxy)phenyl]-1H-pyrazol-5-yl}-3-[2-({[3-chloro-1-(3-chloro-4-methoxybenzyl)-6-methyl-2-oxo-1,2-dihydropyridin-4-yl]oxy}methyl)benzyl]urea], the IC50 was determined as 8.4 nM.

On to `COc1ccc(Cn2c(C)cc(OCc3ccccc3CNC(=O)Nc3cc(C(C)(C)C)nn3-c3ccc(O)c(Cl)c3)c(C)c2=O)cc1Cl` [Example 266, 1-[3-tert-butyl-1-(3-chloro-4-hydroxyphenyl)-1H-pyrazol-5-yl]-3-[2-({[1-(3-chloro-4-methoxybenzyl)-3,6-dimethyl-2-oxo-1,2-dihydropyridin-4-yl]oxy}methyl)benzyl]urea], for which the IC50 was found to be 19.2 nM.

Turning to `COc1ccc(Cn2c(C)cc(OCc3ccccc3CNC(=O)Nc3cc(C(C)(C)C)nn3-c3ccc(O)cc3)c(C)c2=O)cc1Cl` [Example 267, 1-[3-tert-butyl-1-(4-hydroxyphenyl)-1H-pyrazol-5-yl]-3-[2-({[1-(3-chloro-4-methoxybenzyl)-3,6-dimethyl-2-oxo-1,2-dihydro-pyridin-4-yl]oxy}methyl)benzyl]urea], the IC50 is 16.2 nM.

Consider `CSc1ccccc1Cn1c(C)cc(OCc2ccccc2CNC(=O)Nc2cc(C(C)(C)C)nn2-c2ccc(O)cc2)c(Cl)c1=O` [Example 268, 1-[3-tert-butyl-1-(4-hydroxyphenyl)-1H-pyrazol-5-yl]-3-{2-[({3-chloro-6-methyl-1-[2-(methylthio)benzyl]-2-oxo-1,2-dihydro-pyridin-4-yl}oxy)methyl]benzyl}urea], for which the IC50 stood at 23.6 nM.

In the case of `CSc1ccccc1Cn1c(C)cc(OCc2ccccc2CNC(=O)Nc2cc(C(C)(C)C)nn2-c2cccc(OCCO)c2)c(Cl)c1=O` [Example 269, 1-{3-tert-butyl-1-[3-(2-hydroxyethoxy)phenyl]-1H-pyrazol-5-yl}-3-{2-[({3-chloro-6-methyl-1-[2-(methylthio)benzyl]-2-oxo-1,2-dihydropyridin-4-yl}oxy)methyl]benzyl}urea], the IC50 came out at 20.4 nM.

Regarding `CSc1ccccc1Cn1c(C)cc(OCc2ccccc2CNC(=O)Nc2cc(C(C)(C)C)nn2-c2ccc(O)c(Cl)c2)c(Cl)c1=O` [Example 270, 1-[3-tert-butyl-1-(3-chloro-4-hydroxyphenyl)-1H-pyrazol-5-yl]-3-{2-[({3-chloro-6-methyl-1-[2-(methylthio)benzyl]-2-oxo-1,2-dihydropyridin-4-yl}oxy)methyl]benzyl}urea], the IC50 was 32.7 nM.

With `CSc1ccccc1Cn1c(C)cc(OCc2ccccc2CNC(=O)Nc2cc(C(C)(C)C)nn2-c2cccc(O)c2)c(Cl)c1=O` [Example 271, 1-[3-tert-butyl-1-(3-hydroxyphenyl)-1H-pyrazol-5-yl]-3-{2-[({3-chloro-6-methyl-1-[2-(methylthio)benzyl]-2-oxo-1,2-dihydropyridin-4-yl}oxy)methyl]benzyl}urea], the IC50 amounted to 14.1 nM.

On to `Cc1cc(OCc2ccccc2CNC(=O)Nc2cc(C(C)(C)C)nn2-c2ccc(Cl)c(O)c2)c(Cl)c(=O)n1Cc1ccc(CNC(=O)CN)cc1` [Example 272, N-[4-({4-[(2-{[({[3-tert-butyl-1-(4-chloro-3-hydroxyphenyl)-1H-pyrazol-5-yl]amino}carbonyl)amino]methyl}benzyl)oxy]-3-chloro-6-methyl-2-oxopyridin-1(2H)-yl}methyl)benzyl]-glycinamide], for which the IC50 stood at 2.4 nM.

In the case of `CSc1ccccc1Cn1c(C)cc(OCc2ccccc2CNC(=O)Nc2cc(C(C)(C)C)nn2-c2ccc(Cl)c(O)c2)c(Cl)c1=O` [Example 273, 1-[3-tert-butyl-1-(4-chloro-3-hydroxyphenyl)-1H-pyrazol-5-yl]-3-{2-[({3-chloro-6-methyl-1-[2-(methylthio)benzyl]-2-oxo-1,2-dihydropyridin-4-yl}oxy)methyl]benzyl}urea], the IC50 worked out at 121 nM.

On to `Cc1cc(OCc2ccccc2CNC(=O)Nc2cc(C(C)(C)C)nn2-c2ccc(O)c(Cl)c2)c(Cl)c(=O)n1Cc1ccc(CNC(=O)CN)cc1` [Example 274, N-[4-({4-[(2-{[({[3-tert-butyl-1-(3-chloro-4-hydroxyphenyl)-1H-pyrazol-5-yl]amino}carbonyl)amino]methyl}benzyl)oxy]-3-chloro-6-methyl-2-oxopyridin-1(2H)-yl}methyl)benzyl]-glycinamide], for which the IC50 was 3.6 nM.

For the compound `COc1ccccc1Cn1c(C)cc(OCc2ccccc2CNC(=O)Nc2cc(C(C)(C)C)nn2-c2ccc(Cl)c(O)c2)c(C)c1=O` [Example 275, 1-[3-tert-butyl-1-(4-chloro-3-hydroxyphenyl)-1H-pyrazol-5-yl]-3-[2-({[1-(2-methoxybenzyl)-3,6-dimethyl-2-oxo-1,2-dihydropyridin-4-yl]oxy}methyl)benzyl]urea], the IC50 came out at 53.7 nM.

`COc1ccccc1Cn1c(C)cc(OCc2ccccc2CNC(=O)Nc2cc(C(C)(C)SC)nn2-c2cccc(O)c2)c(Cl)c1=O` [Example 276, 1-[2-({[3-chloro-1-(2-methoxybenzyl)-6-methyl-2-oxo-1,2-dihydropyridin-4-yl]oxy}methyl)benzyl]-3-{1-(3-hydroxyphenyl)-3-[1-methyl-1-(methylthio)ethyl]-1H-pyrazol-5-yl}ure]: the IC50 stood at 20.5 nM.

As to `CSc1ccccc1Cn1c(C)cc(OCc2ccccc2CNC(=O)Nc2cc(C(C)(C)C)nn2-c2ccc(Cl)c(O)c2)c(C)c1=O` [Example 277, 1-[3-tert-butyl-1-(4-chloro-3-hydroxyphenyl)-1H-pyrazol-5-yl]-3-{2-[({3,6-dimethyl-1-[2-(methylthio)benzyl]-2-oxo-1,2-dihydropyridin-4-yl}oxy)methyl]benzyl}urea], the IC50 is 131 nM.

As to `CSc1ccccc1Cn1c(C)cc(OCc2ccccc2CNC(=O)Nc2cc(C(C)(C)C)nn2-c2cccc(O)c2)c(C)c1=O` [Example 278, 1-[3-tert-butyl-1-(3-hydroxyphenyl)-1H-pyrazol-5-yl]-3-{2-[({3,6-dimethyl-1-[2-(methylthio)benzyl]-2-oxo-1,2-dihydropyridin-4-yl}oxy)methyl]benzyl}urea], the IC50 came out at 13.2 nM.

Turning to `CNC(=O)c1ccc(C)c(-n2c(C)cc(OCc3ccc(F)cc3CNC(=O)Nc3cc(C(C)(C)C)nn3-c3ccc(C)cc3)c(Br)c2=O)c1` [Example 279, 3-{3-bromo-4-[(2-{[({[3-tert-butyl-1-(4-methylphenyl)-1H-pyrazol-5-yl]amino}carbonyl)-amino]methyl}-4-fluorobenzyl)oxy]-6-methyl-2-oxopyridin-1(2H)-yl}-N,4-dimethylbenzamide], the IC50 was found to be 3.67 nM.

Tested on in another series: not given
Assay: not given
Conditions: not given
What is called melting point is the temperature, or range, at which the solid turns liquid. Take `COC(=O)c1ccc(C)c(-n2c(C)cc(OCc3ccccc3CNC(=O)Nc3cc(C(C)(C)C)nn3-c3cccc(OCCO)c3)c(Cl)c2=O)c1` [Example 130, 3-{4-[2-(3-{5-tert-Butyl-2-[3-(2-hydroxy-ethoxy)-phenyl]-2H-pyrazol-3-yl}-ureidomethyl)-benzyloxy]-3-chloro-6-methyl-2-oxo-2H-pyridin-1-yl}-4-methyl-benzoic acid methyl ester]: the melting point is 147 to 148 °C.

Turning to `Cc1ccc(C(=O)NCCO)cc1-n1c(C)cc(OCc2ccccc2CNC(=O)Nc2cc(C(C)(C)C)nn2-c2cccc(OCCO)c2)c(Cl)c1=O` [Example 132, 3-{4-[2-(3-{5-tert-Butyl-2-[3-(2-hydroxy-ethoxy)-phenyl]-2H-pyrazol-3-yl}-ureidomethyl)-benzyloxy]-3-chloro-6-methyl-2-oxo-2H-pyridin-1-yl}-N-(2-hydroxy-ethyl)-4-methyl-benzamide], the melting point fell in the range of 162 to 163 °C.

On to `CNC(=O)c1ccc(C)c(-n2c(C)cc(OCc3ccccc3CNC(=O)Nc3cc(C(C)(C)C)nn3-c3cccc(OCCO)c3)c(Cl)c2=O)c1` [Example 133, 3-{4-[2-(3-{5-tert-butyl-2-[3-(2-hydroxy-ethoxy)-phenyl]-2H-pyrazol-3-yl}-ureidomethyl)-benzyloxy]-3-chloro-6-methyl-2-oxo-2H-pyridin-1-yl}-4,N-dimethyl-benzamide], for which the melting point was in the range of 168 to 170 °C.

`Cc1ccc(C(=O)NCC(O)CO)cc1-n1c(C)cc(OCc2ccccc2CNC(=O)Nc2cc(C(C)(C)C)nn2-c2cccc(OCCO)c2)c(Cl)c1=O` (stereo not shown) [Example 134, 3-{4-[2-(3-{5-tert-Butyl-2-[3-(2-hydroxy-ethoxy)-phenyl]-2H-pyrazol-3-yl}-ureidomethyl)-benzyloxy]-3-chloro-6-methyl-2-oxo-2H-pyridin-1-yl}-N-(2,3-dihydroxy-propyl)-4-methyl-benzamide] came in with a melting point of 158 to 160 °C.

Take `COC(=O)c1ccc(C)c(-n2c(C)cc(OCc3ccccc3CNC(=O)Nc3cc(C(C)(C)C)nn3-c3ccc(O)cc3)c(Cl)c2=O)c1` [Example 135, 3-[4-(2-{3-[5-tert-butyl-2-(4-hydroxy-phenyl)-2H-pyrazol-3-yl]-ureidomethyl}-benzyloxy)-3-chloro-6-methyl-2-oxo-2H-pyridin-1-yl]-4-methyl-benzoic acid methyl ester]: the melting point lay in the range of 199 to 200 °C.

With `COC(=O)c1ccc(C)c(-n2c(C)cc(OCc3ccc(F)cc3CNC(=O)Nc3cc(C(C)(C)C)nn3-c3ccc(O)cc3)c(Cl)c2=O)c1` [Example 136, 3-[4-(2-{3-[5-tert-butyl-2-(4-hydroxy-phenyl)-2H-pyrazol-3-yl]-ureidomethyl}-4-fluoro-benzyloxy)-3-chloro-6-methyl-2-oxo-2H-pyridin-1-yl]-4-methyl-benzoic acid methyl ester], the melting point lay in the range of 188 to 190 °C.

The compound `COC(=O)c1ccc(C)c(-n2c(C)cc(OCc3ccccc3CNC(=O)Nc3cc(C(C)(C)C)nn3-c3ccc(O)c(Cl)c3)c(Cl)c2=O)c1` [Example 137, 3-[4-(2-{3-[5-tert-butyl-2-(3-chloro-4-hydroxy-phenyl)-2H-pyrazol-3-yl]-ureidomethyl}-benzyloxy)-3-chloro-6-methyl-2-oxo-2H-pyridin-1-yl]-4-methyl-benzoic acid methyl ester] yielded a melting point of 185 to 186 °C.
